Data taken from patent US7211557B2, “Use of GLP-1 analogs and derivatives administered peripherally in regulation of obesity” (Eli Lilly and Company, priority 1996, dated 2007).

Key:
[1] = Continuous subcutaneous infusion of GLP-1(7-36) amide for four weeks in NIDDM patients, preceded and followed by two weeks of intensive insulin therapy: body weight; type: in vivo, human; conditions: for body weight lost, average: four patients, mean±SEM
STC-1 cells = conditions: exposure of STC-1 cells; cited from earlier work
[2] = cited from earlier work
[3] = cited from earlier work; remark: listed apart in the source

## insulin
[1]; first two weeks of intensive insulin treatment
  body weight lost, average: 1.3 ± 0.6 kg
[1]; mean±SEM of patients (no data for MP), Second Insulin treatment, 2 weeks
  Weight Change: +1.0 ± 1.0 kg
[1]; mean±SEM of patients (no data for MP), after Second Insulin treatment, 2 weeks
  Patient Weight: 98.2 ± 5.0 kg
[1]; mean±SEM of patients, First Insulin treatment, 2 weeks
  Weight Change: -1.3 ± 0.6 kg
[1]; mean±SEM of patients, after First Insulin treatment, 2 weeks
  Patient Weight: 96.4 ± 6.0 kg
[1]; patient four, First Insulin treatment, 2 weeks
  Weight Change: -2.0 kg
[1]; patient four, Second Insulin treatment, 2 weeks
  Weight Change: 0.0 kg
[1]; patient four, after First Insulin treatment, 2 weeks
  Patient Weight: 111.0 kg
[1]; patient four, after Second Insulin treatment, 2 weeks
  Patient Weight: 108.0 kg
[1]; patient one, First Insulin treatment, 2 weeks
  Weight Change: -2.5 kg
[1]; patient one, Second Insulin treatment, 2 weeks
  Weight Change: 3.0 kg
[1]; patient one, after First Insulin treatment, 2 weeks
  Patient Weight: 99.0 kg
[1]; patient one, after Second Insulin treatment, 2 weeks
  Patient Weight: 95.0 kg
[1]; patient three, First Insulin treatment, 2 weeks
  Weight Change: -0.1 kg
[1]; patient three, after First Insulin treatment, 2 weeks
  Patient Weight: 81.9 kg
[1]; patient two, First Insulin treatment, 2 weeks
  Weight Change: -0.5 kg
[1]; patient two, Second Insulin treatment, 2 weeks
  Weight Change: 0.0 kg
[1]; patient two, after First Insulin treatment, 2 weeks
  Patient Weight: 93.5 kg
[1]; patient two, after Second Insulin treatment, 2 weeks
  Patient Weight: 91.5 kg
[1]; second two weeks of intensive insulin treatment
  body weight change, on average: gained weight

## CCCCCCCCCCCCCC(=O)O[C@@H]1[C@@H](C)[C@@]2(O)[C@@H](C=C(CO)C[C@]3(O)C(=O)C(C)=C[C@@H]23)[C@@H]2C(C)(C)[C@]12OC(C)=O [TPA, 12-O-tetradecanoylphorbol-13-acetate]
STC-1 cells
  release of GLP-1: significant increases in release of GLP-1

## GLP-1(7-36) amide
[1]; during GLP-1 treatment (4 weeks)
  body weight lost, average: 3.5 ± 1.2 kg
[1]; mean±SEM of patients, GLP-1 infusion 1.2 pmol/kg/minute s.c., 4 weeks
  Weight Change: -3.5 ± 1.2 kg
[1]; mean±SEM of patients, after GLP-1 infusion 1.2 pmol/kg/minute s.c., 4 weeks
  Patient Weight: 92.9 ± 5.8 kg
[1]; patient four, GLP-1 infusion 1.2 pmol/kg/minute s.c., 4 weeks
  Weight Change: -3.0 kg
[1]; patient four, after GLP-1 infusion 1.2 pmol/kg/minute s.c., 4 weeks
  Patient Weight: 108.0 kg
[1]; patient one, GLP-1 infusion 1.2 pmol/kg/minute s.c., 4 weeks
  Weight Change: -7.0 kg
[1]; patient one, after GLP-1 infusion 1.2 pmol/kg/minute s.c., 4 weeks
  Patient Weight: 92.0 kg
[1]; patient three, GLP-1 infusion 1.2 pmol/kg/minute s.c., 4 weeks
  Weight Change: -1.9 kg
[1]; patient three, after GLP-1 infusion 1.2 pmol/kg/minute s.c., 4 weeks
  Patient Weight: 80.0 kg
[1]; patient two, GLP-1 infusion 1.2 pmol/kg/minute s.c., 4 weeks
  Weight Change: -2.0 kg
[1]; patient two, after GLP-1 infusion 1.2 pmol/kg/minute s.c., 4 weeks
  Patient Weight: 91.5 kg
[1]; peripheral administration to obese patients
  effect on body weight: significant reduction in body weight
[2]; acute intraperitoneal administration in rats
  food intake: does not affect food intake
[2]; intraperitoneal administration, even at relatively high doses
  early dark-phase feeding: does not affect early dark-phase feeding
[3]; ICV, animals fed ad libitum
  food intake following injection of neuropeptide Y: significantly reduces food intake
[3]; intracerebroventricular route (ICV), fasted rats
  feeding: markedly inhibits feeding
